Experimental data taken from US6699686B1, “Modified nuclear glucocorticoid receptor, fusion protein, and DNA fragments coding for said receptor and said fusion protein” (Association pour le Development de la Recherche en …, priority 1996, dated 2004).
Changes are numbered by the printed parent chain. One block for each molecule: values may come before it.

What was measured:
wild-type hGR = biological target: T1, wild-type hGR (Homo sapiens, UniProt P04150); test: Transcriptional activation of pTAT-tk-Luc luciferase reporter in transiently transfected CV-1 cells; format: cell-based; parameters: Luciferase activity % Wild type: concentration or dose not given beside the values; conditions: for Luciferase activity % Wild type: 24 h ligand, mean of three independent assays; for EC50: ligand concentration giving 50% of maximum transcriptional response
T1 construct: expressed in transfected cells
T1 sequence (P04150 1-777): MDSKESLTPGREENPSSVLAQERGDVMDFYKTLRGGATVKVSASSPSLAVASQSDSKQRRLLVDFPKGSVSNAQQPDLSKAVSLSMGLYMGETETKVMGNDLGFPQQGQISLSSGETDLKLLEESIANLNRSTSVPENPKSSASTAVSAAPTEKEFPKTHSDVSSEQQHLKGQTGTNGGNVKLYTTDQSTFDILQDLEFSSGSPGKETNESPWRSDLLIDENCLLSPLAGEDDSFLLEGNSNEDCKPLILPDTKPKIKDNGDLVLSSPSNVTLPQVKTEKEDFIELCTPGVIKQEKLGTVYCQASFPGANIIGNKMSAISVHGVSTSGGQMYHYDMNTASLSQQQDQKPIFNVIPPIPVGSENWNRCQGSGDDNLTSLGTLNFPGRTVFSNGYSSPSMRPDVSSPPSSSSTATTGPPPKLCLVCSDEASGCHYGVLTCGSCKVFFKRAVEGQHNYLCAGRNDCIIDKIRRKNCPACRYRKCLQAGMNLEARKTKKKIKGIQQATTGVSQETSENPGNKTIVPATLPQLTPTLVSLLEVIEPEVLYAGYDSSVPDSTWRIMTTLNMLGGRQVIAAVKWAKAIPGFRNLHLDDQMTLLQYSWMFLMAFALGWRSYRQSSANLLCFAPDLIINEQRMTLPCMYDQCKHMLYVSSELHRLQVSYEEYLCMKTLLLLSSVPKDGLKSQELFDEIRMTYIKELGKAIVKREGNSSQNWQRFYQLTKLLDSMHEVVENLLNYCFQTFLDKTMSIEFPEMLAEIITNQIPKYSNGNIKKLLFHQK
Experimental: (§1) The receptors were transiently expressed in GR-free CV-1 cells, conjointly with a luciferase reporter gene under the control of the tyrosine aminotransferase promoter (pTAT-tk-Luc).
(§2) After transfection, the cells were incubated for 24 hours with increasing concentrations of Dex, and they were then subjected to an assay of the β-galactosidase and luciferase activities, as described in “Materials and Methods”. The luciferase activity was normalized with the β-galactosidase activity, and the value obtained in the absence of ligand was subtracted for each point. The results were expressed as a percentage of the maximum luciferase activity obtained for each receptor. Each point is the mean±standard deviation of the mean of four separate determinations carried out in duplicate. […] The [^3H] steroid attached was measured after treatment with dextran-coated charcoal. The results presented are those for a single assay carried out in duplicate and representative of three separate assays.
(§3) Co-transfections were carried out and dose-response curves were constructed as described in FIG. 2. […] The assays of luciferase and β-galactosidase activity were carried out as described in “Materials and Methods”. The mean values of three independent assays are given in this table. nm=not measurable.
(§4) The CV-1 and Cos-7 cells were cultured in Dulbeco's modified Eagle's medium (DMEM) containing 10% (v/v) of fetal calf serum (FCS) (Gibco, Grand Island, N.Y.), in a humidified atmosphere containing 5% CO2. The HeLa cells were cultured under the same conditions. Transient transfections were carried out in 6-well multiplates according to the calcium phosphate procedure already described (42). A reference recombinant plasmid, pCMV-βgal, expressing bacterial β-galactosidase, was transfected conjointly with the receptor expression vector and the corresponding reporter gene so as to correct possible variations in he transfection efficiency. The precipitate was removed by washing after 24 hours, and the cells were kept in DMEX without FCS but containing hormone. After another 24 hours, the cells were rinsed and lysed for 15 minutes with 0.3 ml of lysis buffer [25 mM Tris.phosphate, pH 7.8, 8 mM […], 1% Triton X100, 10% glycerol (48)]. The corresponding luciferase activity as determined on an aliquot fraction (0.1 ml), by evaluation of the luminescence peak (for an integration time of 15 seconds), after injection of 0.1 ml of 1 mM luciferin in an LKB luminometer. The β-galactosidase was determined by the method modified by Bocquel et al. (49), for controlling the efficiency of each transfection.
(§5) The reporter gene pTAT-tk-Luc was provided by D. Gagne and was constructed as follows: an intermediate plasmid pTAT was first generated by insertion of the 966 bp EcoRI-BamHI segment obtained from pKT531 [offered freely by T. Grande (50)] into the corresponding sites of the vector pUC19 (Pharmacia). The fragment containing the sequence coding for the firefly luciferase and the thymidine kinase (tk) minimal promoter obtained from the Herpes simplex virus was isolated in the form of a BamHI fragment from pvit-tk-Luc (51) and inserted, downstream of the TAT promoter, into the corresponding site of pTAT. The reporter plasmid pGRE-tk-Luc was constructed by ligation of the fragment of HindIII-BglII digestion of pGRE-tk-CAT (52), which contains a synthetic GRE (AGAACAcagTGTTCT) upstream of the tk minimal promoter, into the HindIII-BglII sites of pLuc (53). The reporter gene p(17M)5-βGlob-Luc has been previously described (54). The reporter plasmid p(17M)5-tata-Luc was constructed from the plasmid p(17M)5-tata-CAT (55) by digestion with XhoI-BamHI and isolation of the fragment containing (17M5)-tata. This fragment was then inserted into the vector pGL2 (Promega) digested with the same restriction enzymes.

hGR(I747/T) = biological target: T2, hGR(I747/T) (Homo sapiens, UniProt P04150, I747T); test: as above; format: cell-based; conditions: for Luciferase activity % hGR (I747/T) / EC50 / transactivation by the I747/T mutant receptor compared with wild-type receptor: CV-1 cells, pTAT-tk-Luc; for Luciferase activity % hGR (I747/T): 24 h ligand, mean of three independent assays; for EC50: ligand concentration giving 50% of maximum transcriptional response; for % EC50: EC50 hGR(I747/T) relative to EC50 wild type
T2 construct: The same shift was observed as with the complete GR (I747/T) mutant; expressed in transfected cells
T2 sequence (P04150 1-777 I747T): T1 sequence (P04150 1-777) with I747T
Experimental: as §1, §2, §3, §4, §5

[1] = biological target: GR(I747/T) glucocorticoid receptor mutant (Homo sapiens) (UniProt P04150); test: cell_activity; conditions: EC50 is for dexamethasone; luciferase reporter in CV-1 cells; cortisol 15% and corticosterone/aldosterone 0% activity
[2] = biological target: wild-type glucocorticoid receptor (hGR) T747I (reversion to wild type) (Homo sapiens) (UniProt P04150); test: cell_activity; conditions: EC50 is for dexamethasone; luciferase reporter in CV-1 cells
[3] = tested on: Gal4(1-147)-GR(500-777) (Saccharomyces cerevisiae / Homo sapiens); test: cell_activity; conditions: EC50 is for dexamethasone; p(17M)5-βGlob-Luc in HeLa cells; 2e-9 M with tata-Luc
[4] = tested on: Gal4(1-147)-GR(I747/T)(500-777) I747T (Saccharomyces cerevisiae / Homo sapiens); test: cell_activity; conditions: EC50 is for dexamethasone; p(17M)5-βGlob-Luc in HeLa cells; 2e-7 M with tata-Luc
[5] = biological target: T3, GR(I747/T) glucocorticoid receptor mutant (Homo sapiens, UniProt P04150 SEQ:1-777); test: cell_activity; EC50 is for dexamethasone; luciferase reporter in CV-1 cells
T3 chain: T1 sequence (P04150 1-777) with I747T
Experimental: The $EC50$ values were determined graphically.
The HeLa cells were cultured under the same conditions.

Luciferase activity % Wild type (wild-type hGR): 98% | EC50 (wild-type hGR): 0.5 nM | Luciferase activity % hGR (I747/T) (hGR(I747/T)): 102% | EC50 (hGR(I747/T)): 20 nM
Molecule: CC1(C)O[C@@H]2C[C@H]3[C@@H]4CCC5=CC(=O)C=C[C@]5(C)[C@@]4(F)[C@@H](O)C[C@]3(C)[C@]2(C(=O)CO)O1 [TA, triamcinolone acetonide]

Molecule: CC#C[C@]1(O)CC[C@H]2[C@@H]3C=C(C)C4=CC(=O)C=C[C@]4(C)[C@H]3[C@@H](O)C[C@@]21C [RU28362]
Luciferase activity % Wild type (wild-type hGR): 90% | EC50 (wild-type hGR): 0.3 nM | transactivation by the I747/T mutant receptor compared with wild-type receptor (hGR(I747/T)): the same transactivation as with the wild-type receptor | Luciferase activity % hGR (I747/T) (hGR(I747/T)): 88% | EC50 (hGR(I747/T)): 7 nM | % EC50 (hGR(I747/T)): 23%

Luciferase activity % Wild type (wild-type hGR): 100% | EC50 (wild-type hGR): 0.1 nM | transactivation by the I747/T mutant receptor compared with wild-type receptor (hGR(I747/T)): a higher activity | Luciferase activity % hGR (I747/T) (hGR(I747/T)): 180% | EC50 (hGR(I747/T)): 2 nM | % EC50 (hGR(I747/T)): 20%
Molecule: bimedrazol

Molecule: TAT promoter (pTAT-tk-Luc), two GREs
EC50 [1]: 40 nM | EC50 [2]: 0.4 nM

Luciferase activity % Wild type (wild-type hGR): 75% | EC50 (wild-type hGR): 0.15 nM | transactivation by the I747/T mutant receptor compared with wild-type receptor (hGR(I747/T)): a higher activity | Luciferase activity % hGR (I747/T) (hGR(I747/T)): 100% | EC50 (hGR(I747/T)): 3 nM | % EC50 (hGR(I747/T)): 20%
Molecule: CC1(C)O[C@@H]2C[C@H]3[C@@H]4C[C@H](F)C5=CC(=O)C=C[C@]5(C)[C@@]4(F)[C@@H](O)C[C@]3(C)[C@]2(C(=O)CO)O1 [Fluocinolone, fluocinolone acetonide]

Molecule: (17M)5 Gal4 response element
EC50 [3]: 1.7 nM | EC50 [4]: 150 nM

B1: synthetic palindromic GRE (pGRE-tk-Luc) (dsDNA)
DNA 1: AGAACACAGTGTTCT
DNA 2: AGAACACTGTGTTCT
EC50 [5]: 20 nM
